Laboratory results reported in US4452851A, “Cephem compounds” (Fujisawa Pharmaceutical Co., Ltd., priority 1981, dated 1984).
≈ marks a conversion by molar mass, not a printed value.

Legend:
in vivo = details: rat, po, 100 mg/kg
Procedure: Rats anesthetized with pentobarbital were fixed in supine position, and a polyethylene cannula was inserted into the bile duct. Bile samples were collected at 0 to 3, 3 to 6, and 6 to 24 hours after oral administration of 100 mg of the test drugs per kg. The antibiotic levels in the bile samples were assyed with the standard solutions prepared with M/15 phosphate buffer (pH 7.0) and the biliary excretion in 24 hours were calculated.

[1] = Urinary excretion in rats after oral administration; type: in vivo; details: rat, 100 mg/kg, 100 mg per Kg, urine 0 to 24 hours, bioassay
Procedure: The concentration of antibiotic in urine samples were bioassayed with the standard buffer at pH 7.0, and the urinary excretion in 24 hours were calculated.

Klebsiella pneumoniae 20 = test: Minimal inhibitory concentration, two-fold agar-plate dilution method; type: cell-based; details: HI-agar, 37° C., 20 hours
Procedure: (§1) In vitro antibacterial activity was determined by the two-fold agar-plate dilution method as described below. One loopful of an overnight culture of each test strain in Trypticase-soy broth (10^8 viable cells per ml) was streaked on heart infusion agar (HI-agar) containing graded concentrations of representative test compound, and the minimal inhibitory concentration (MIC) was expressed in terms of μg/ml after incubation at 37° C. for 20 hours.

Proteus mirabilis 18 = test: as above; type: cell-based; details: HI-agar, 37° C., 20 hours
Procedure: as §1

[2] = test system: Proteus vulgaris IAM-1025; test: as above; type: cell-based; details: IAM1025, HI-agar, 37° C., 20 hours
Procedure: as §1

[3] = test system: Escherichia coli NIHJ JC-2; test: as above; type: cell-based; details: NIHJJC2, HI-agar, 37° C., 20 hours
Procedure: as §1

Escherichia coli 31 = test: as above; type: cell-based; details: HI-agar, 37° C., 20 hours
Procedure: as §1

SMILES | dose excreted at 24 h (in vivo) | dose excreted at 24 h [1] | MIC (Klebsiella pneumoniae 20) | MIC (Proteus mirabilis 18) | MIC [2] | MIC [3] | MIC (Escherichia coli 31)
CSC1=C(C(=O)O)N2C(=O)C(NC(=O)/C(=N\OCC(=O)O)c3cscn3)C2SC1 (stereo not drawn) [Test Compound (3), 7-[2-(4-thiazolyl)-2-carboxymethoxyiminoacetamido]-3-methylthio-3-cephem-4-carboxylic acid (syn isomer)] | 25.5% | 48.6% | – | – | – | – | –
CCSC1=C(C(=O)O)N2C(=O)C(NC(=O)/C(=N\OCC(=O)O)c3nsc(N)n3)C2SC1 (stereo not drawn) [(4), 7-[2-(5-amino-1,2,4-thiadiazol-3-yl)-2-carboxymethoxyiminoacetamido]-3-ethylthio-3-cephem-4-carboxylic acid (syn isomer)] | – | – | 0.39 µg/mL (≈ 0.798 µM) | 0.2 µg/mL (≈ 0.409 µM) | 0.78 µg/mL (≈ 1.6 µM) | 1.56 µg/mL (≈ 3.19 µM) | 0.2 µg/mL (≈ 0.409 µM)
CCSC1=C(C(=O)O)N2C(=O)C(NC(=O)/C(=N\OCC(=O)O)c3nc(N)sc3Cl)C2SC1 (stereo not drawn) [Compound (3), 7-[2-(2-amino-5-chlorothiazol-4-yl)-2-carboxymethoxyiminoacetamido]-3-ethylthio-3-cephem-4-carboxylic acid (syn isomer)] | – | – | 0.2 µg/mL (≈ 0.383 µM) | 0.05 µg/mL (≈ 0.0958 µM) | 0.1 µg/mL (≈ 0.192 µM) | 1.56 µg/mL (≈ 2.99 µM) | 0.2 µg/mL (≈ 0.383 µM)

Continued by falling MIC (Klebsiella pneumoniae 20), values first:

dose excreted at 24 h (in vivo) | dose excreted at 24 h [1] | MIC (Klebsiella pneumoniae 20) | MIC (Proteus mirabilis 18) | MIC [2] | MIC [3] | MIC (Escherichia coli 31) | SMILES
32.2% | 19.4% | 0.1 µg/mL (≈ 0.205 µM) | 0.025 µg/mL (≈ 0.0513 µM) | 0.78 µg/mL (≈ 1.6 µM) | 3.13 µg/mL (≈ 6.42 µM) | 0.2 µg/mL (≈ 0.41 µM) | CCSC1=C(C(=O)O)N2C(=O)C(NC(=O)/C(=N\OCC(=O)O)c3csc(N)n3)C2SC1 (stereo not drawn) [Compound (2), 7-[2-(2-aminothiazol-4-yl)-2-carboxymethoxyiminoacetamido]-3-ethylthio-3-cephem-4-carboxylic acid (syn isomer)]
41.1% | 51.6% | 0.1 µg/mL (≈ 0.211 µM) | 0.05 µg/mL (≈ 0.106 µM) | 0.39 µg/mL (≈ 0.824 µM) | 1.56 µg/mL (≈ 3.29 µM) | 0.2 µg/mL (≈ 0.422 µM) | CSC1=C(C(=O)O)N2C(=O)C(NC(=O)/C(=N\OCC(=O)O)c3csc(N)n3)C2SC1 (stereo not drawn) [Compound (1), 7-[2-(2-aminothiazol-4-yl)-2-carboxymethoxyiminoacetamido]-3-methylthio-3-cephem-4-carboxylic acid (syn isomer)]
